The record followed here is patent US5470837A, “5'-vinylhalo-aristeromycin/adenosine analogs and immunosuppressants” (Merrell Dow Pharmaceuticals Inc., priority 1994, dated 1995).

One assay relates to anti-ovalbumin IgG. Nature of the assay: In vivo immune response to T-dependent antigen (ovalbumin): serum anti-ovalbumin IgG by ELISA. The arrangement: species or system mice. The following applies: for Anti-Ovalbumin Titer ± S.D.: ten days after immunization, dilution giving absorbance 0.750 at 405 nm. The procedure:
In vivo immune response: Mice were radomly distributed by weight into 3 groups of ten. Dosing i.p. with Dulbecco's phosphate buffered saline (PBS) or (Z)-4',5'-didehydro-5'-deoxy-5'-fluoroadenosine (at 5 or 10 mg/Kg) dissolved in PBS was begun one day prior to immunization. Ovalbumin (Sigma, St. Louis, Mo.) at 2 mg/mL in PBS was emulsified in an equal volume of Freunds complete adjuvant and 50 μL, containing 50 μg ovalbumin, was injected into each footpad. Animals were dosed daily. Ten days after the immunization, the animals were bled for serum and sacrificed. Serum levels of anti-ovalbumin IgG were quantitated in an ELISA. Specifically, 100 μL of a 1% ovalbumin solution in Tris-bufferedsaline (TBS) (20 mM Tris, 500 mM NaCl, pH 7.5) was added to individual wells of a 96 well ELISA microtiter plate. The plate was incubated for 2 hours at room temperature and the wells were washed 3 times with TBS containing 0.05% Tween 20 (TBS-Tween). Dilutions of the serum samples in TBS-Tween (100 μL) were added to the wells, which were then incubated for one hour at room temperature. The plate was again washed 3 times with TBS-Tween. The wells were then incubated with 100 μL of a 1:1000 dilution of rabbit anti-mouse IgG labled with horse radish peroxidase (Bio-Rad, Richmond, Calif.) for one hour at room temperature. After washing 3 times with TBS-Tween, the wells were incubated with 100 μL of Bio-Rad peroxidase substrate [2,2'-azino-di-(3-ethyl-benzthiazoline sulfonate) in cocodylic acid buffer and hydrogen peroxide]. Absorbance at 405 nm was measured and the antibody titer was calculated from the linear regression curve of each serum sample and is reported as the log of the dilution which gave an absorbance reading of 0.750, unless otherwise indicated.

Assay [1] deals with murine splenic mononuclear cells. Kind of assay: Mitogenic assay: Concanavalin A stimulated proliferation ([3H]-thymidine incorporation) of murine splenic mononuclear cells. It counts as cell-based, CD-1 mice. The source says: Cells: Spleens and/or lymph nodes from a total of 16 individual outbred CD-1 mice (Charles River, Wilmington, Mass.) were asceptically removed, pooled, and single cell suspensions were made in Hank's Balanced Salt Solution (HBSS, calcium and magnesium free). Erythrocytes were lysed by treatment with Tris-buffered ammonium chloride (0.155M NH4 Cl, 0.0165M Tris, pH 7.2). Mononuclear cells were washed with HBSS and resuspended in Dulbecco's PBS and resuspended in RPMI 1640 containing 10% FCS, 5×10^-5 M 2mercaptoethanol, 2 mM L-glutamine, 1% penicillin-streptomycin and 1 mM HEPES buffer (CM).
Mitogenic Assay: Murine splenic mononuclear cells (5×10^5) were incubated with Concanavalin A at a final concentration of 2.5 μg/mL in 96 well flat-bottomed microtiter plates. Compounds to be tested were added at the initiation of culture. The final volume was 0.2 mL. The cultures were incubated in 95% humidified air/5% CO2 at 37° C. for 2 days. Eighteen hours before termination of the cultures, each well was pulsed with 1 μCi of [^3 H]-thymidine. Cells from individual wells were harvested onto glass fiber filter paper with an automated multi-sample harvester. Filters were placed in scintillation fluid (Universal Cocktail, ICN Radiochemicals, Irvin, Calif.) and the [^3 H]-thymidine incorporation, in counts per minute (cpm), was measured in a Packard Tri-carb 4640 Scintillation Counter.
Background: Dividing cells build labelled thymidine or BrdU into new DNA.

The test system of assay [2] is human peripheral blood mononuclear cells. Kind of assay: Mitogenic assay: pokeweed mitogen stimulated proliferation ([3H]-thymidine incorporation) of human peripheral blood mononuclear cells. Format: cell-based. The procedure:
Cells: Human peripheral blood mononuclear cells were isolated from samples of blood (in 0.01M sodium citrate) using 50 mL LEUKOPREP® separation tubes (Becton Dickenson, Lincoln Park, N.J.). Tubes were centrifuged at room temperature for 15 minutes at 2400 rpm in a swinging bucket rotor. The cells recovered at interface were washed in Dulbecco's PBS and resuspended in RPMI 1640 containing 10% FCS, 5×10^-5 M 2-mercaptoethanol, 2 mM L-glutamine, 1% penicillin-streptomycin and 1 mM HEPES buffer (CM). Mitogenic Assay: Human peripheral blood mononuclear cells (2×10^5) were incubated with pokeweed mitogen at a final concentration of 0.1 μg/mL or Concanavalin A at a final concentration of 1.0 μg/mL in 96 well flat-bottomed microtiter plates (Falcon 3072, Becton Dickinson). Compounds to be tested were added at the initiation of culture. The final volume was 0.2 mL. The cultures were incubated in 95% humidified air/5% CO2 at 37° C. for 2 days (Concanavalin A) or 6 days (Pokeweed mitogen). Eighteen hours before termination of the cultures, each well was pulsed with 1 μCi of [^3 H]-thymidine. Cells from individual wells were harvested onto glass fiber filter paper with an automated multi-sample harvester. Filters were placed in scintillation fluid (Universal Cocktail, ICN Radiochemicals, Irvin, Calif.) and the [^3 H]-thymidine incorporation, in counts per minute (cpm), was measured in a Packard Tri-carb 4640 Scintillation Counter. Peripheral blood mononuclear cells from three individuals were cultured with an optimal concentration of pokeweed mitogen, a T-dependent B-cell mitogen, in the presence of increasing concentrations of (Z)-4',5'-didehydro-5'-deoxy-5'-fluoroadenosine. […] Similar studies were performed culturing human peripheral blood cells with an optimal concentration of Concanavalin A, a potent T-cell mitogen.

Assay [3] shares this test system. Kind of assay: Mitogenic assay: Concanavalin A stimulated proliferation ([3H]-thymidine incorporation) of human peripheral blood mononuclear cells. Format: cell-based. The procedure:
Cells: Human peripheral blood mononuclear cells were isolated from samples of blood (in 0.01M sodium citrate) using 50 mL LEUKOPREP® separation tubes (Becton Dickenson, Lincoln Park, N.J.). Tubes were centrifuged at room temperature for 15 minutes at 2400 rpm in a swinging bucket rotor. The cells recovered at interface were washed in Dulbecco's PBS and resuspended in RPMI 1640 containing 10% FCS, 5×10^-5 M 2-mercaptoethanol, 2 mM L-glutamine, 1% penicillin-streptomycin and 1 mM HEPES buffer (CM).
Mitogenic Assay: Human peripheral blood mononuclear cells (2×10^5) were incubated with pokeweed mitogen at a final concentration of 0.1 μg/mL or Concanavalin A at a final concentration of 1.0 μg/mL in 96 well flat-bottomed microtiter plates (Falcon 3072, Becton Dickinson). Compounds to be tested were added at the initiation of culture. The final volume was 0.2 mL. The cultures were incubated in 95% humidified air/5% CO2 at 37° C. for 2 days (Concanavalin A) or 6 days (Pokeweed mitogen). Eighteen hours before termination of the cultures, each well was pulsed with 1 μCi of [^3 H]-thymidine. Cells from individual wells were harvested onto glass fiber filter paper with an automated multi-sample harvester. Filters were placed in scintillation fluid (Universal Cocktail, ICN Radiochemicals, Irvin, Calif.) and the [^3 H]-thymidine incorporation, in counts per minute (cpm), was measured in a Packard Tri-carb 4640 Scintillation Counter.
Peripheral blood mononuclear cells from three individuals were cultured with an optimal concentration of pokeweed mitogen, a T-dependent B-cell mitogen, in the presence of increasing concentrations of (Z)-4',5'-didehydro-5'-deoxy-5'-fluoroadenosine. […] Similar studies were performed culturing human peripheral blood cells with an optimal concentration of Concanavalin A, a potent T-cell mitogen.

In the case of `Nc1ncnc2c1ncn2[C@@H]1O/C(=C\F)[C@@H](O)[C@H]1O` [Compound A, (Z)-4',5'-didehydro-5'-deoxy-5'-fluoroadenosine], the “Anti-Ovalbumin Titer ± S.D.” value turned out to be 550 ± 272 in the assay with anti-ovalbumin IgG (5 mg/Kg i.p. daily) and 375 ± 124 in the assay on anti-ovalbumin IgG (10 mg/Kg i.p. daily). In addition, the “serum levels of anti-ovalbumin IgG compared to Controls” value in the assay on anti-ovalbumin IgG (5 or 10 mg/Kg i.p. daily, in words) is on record as “significantly reduced”. Moreover, the activity at 1 µM worked out at 28.6% in assay [1] (Mus musculus, 48 h, 1.0 μM, Concanavalin A 2.5 μg/mL, 2 days, read-out: Proliferation (% of Control) Concanavalin A mitogen); 50.9% in assay [2] (Homo sapiens, PBMC, 144 h, 1.0 μM, pokeweed mitogen 0.1 μg/mL, 6 days, read-out: Proliferation (% of Control) Pokeweed mitogen); 15.8% in assay [3] (Homo sapiens, PBMC, 48 h, 1.0 μM, Concanavalin A 1.0 μg/mL, 2 days, read-out: Proliferation (% of Control) Concanavalin A mitogen). The activity at 10 µM in assay [1] (Mus musculus, 48 h, 10.0 μM, Concanavalin A 2.5 μg/mL, 2 days, read-out: Proliferation (% of Control) Concanavalin A mitogen) is 17.9%; in assay [2] (Homo sapiens, PBMC, 144 h, 10.0 μM, pokeweed mitogen 0.1 μg/mL, 6 days, read-out: Proliferation (% of Control) Pokeweed mitogen), 19.7%; in assay [3] (Homo sapiens, PBMC, 48 h, 10.0 μM, Concanavalin A 1.0 μg/mL, 2 days, read-out: Proliferation (% of Control) Concanavalin A mitogen) it was 3.7%. The activity at 0.001 µM came out at 96.3% in assay [1] (Mus musculus, 48 h, .001 μM, Concanavalin A 2.5 μg/mL, 2 days, read-out: Proliferation (% of Control) Concanavalin A mitogen); 97.4% in assay [2] (Homo sapiens, PBMC, 144 h, .001 μM, pokeweed mitogen 0.1 μg/mL, 6 days, read-out: Proliferation (% of Control) Pokeweed mitogen); 100% in assay [3] (Homo sapiens, PBMC, 48 h, .001 μM, Concanavalin A 1.0 μg/mL, 2 days, read-out: Proliferation (% of Control) Concanavalin A mitogen). Also, the activity at 0.01 µM in assay [1] (Mus musculus, 48 h, .01 μM, Concanavalin A 2.5 μg/mL, 2 days, read-out: Proliferation (% of Control) Concanavalin A mitogen) amounted to 86%; in assay [2] (Homo sapiens, PBMC, 144 h, .01 μM, pokeweed mitogen 0.1 μg/mL, 6 days, read-out: Proliferation (% of Control) Pokeweed mitogen) it was 103%; in assay [3] (Homo sapiens, PBMC, 48 h, .01 μM, Concanavalin A 1.0 μg/mL, 2 days, read-out: Proliferation (% of Control) Concanavalin A mitogen) it was 101%. Besides, the activity at 0.1 µM in assay [1] (Mus musculus, 48 h, .1 μM, Concanavalin A 2.5 μg/mL, 2 days, read-out: Proliferation (% of Control) Concanavalin A mitogen) is 51.8%; in assay [2] (Homo sapiens, PBMC, 144 h, .1 μM, pokeweed mitogen 0.1 μg/mL, 6 days, read-out: Proliferation (% of Control) Pokeweed mitogen), 72.1%; in assay [3] (Homo sapiens, PBMC, 48 h, .1 μM, Concanavalin A 1.0 μg/mL, 2 days, read-out: Proliferation (% of Control) Concanavalin A mitogen), 66.4%. Besides, the IC50 in assay [1] (Mus musculus, 48 h, murine cells, Concanavalin A 2.5 μg/mL, 2 days, read-out: IC50, inhibition of Concanavalin A stimulated proliferation) amounted to 190 nM; in assay [3] (PBMC, 48 h, human cells, Concanavalin A 1.0 μg/mL, 2 days, read-out: IC50, inhibition of Concanavalin A stimulated proliferation), 250 nM. Besides, the “inhibition of Concanavalin A stimulated proliferation, in words” value in assay [1] (murine cells, increasing concentrations) is given as “dose dependent inhibition”; in assay [3] (human cells, increasing concentrations), “dose dependent inhibition”. Moreover, the “inhibition of pokeweed stimulated proliferation, in words” value in assay [2] (increasing concentrations) is listed as “dose dependent inhibition”.
